Entries after “also recorded” stand apart in the source; their conditions may differ. Like-named read-outs stand apart in the source and are kept apart here.
Experiments:
ChE = conditions: cited from earlier work
[1] = tested on: AChE in term placenta sections; test: Cytochemical ChE staining, term placenta; set-up: species or system human; conditions: 10^-5 M
[2] = tested on: BuChE in early placenta sections; test: Cytochemical ChE staining, early placenta; set-up: species or system human; conditions: 10^-5 M
"atypical" BuChE [3] = molecular target: T1, "atypical" BuChE (Homo sapiens, UniProt P06276, D98G); conditions: cited from earlier work
Target sequence in this assay (P06276 29-602 D98G limits assumed): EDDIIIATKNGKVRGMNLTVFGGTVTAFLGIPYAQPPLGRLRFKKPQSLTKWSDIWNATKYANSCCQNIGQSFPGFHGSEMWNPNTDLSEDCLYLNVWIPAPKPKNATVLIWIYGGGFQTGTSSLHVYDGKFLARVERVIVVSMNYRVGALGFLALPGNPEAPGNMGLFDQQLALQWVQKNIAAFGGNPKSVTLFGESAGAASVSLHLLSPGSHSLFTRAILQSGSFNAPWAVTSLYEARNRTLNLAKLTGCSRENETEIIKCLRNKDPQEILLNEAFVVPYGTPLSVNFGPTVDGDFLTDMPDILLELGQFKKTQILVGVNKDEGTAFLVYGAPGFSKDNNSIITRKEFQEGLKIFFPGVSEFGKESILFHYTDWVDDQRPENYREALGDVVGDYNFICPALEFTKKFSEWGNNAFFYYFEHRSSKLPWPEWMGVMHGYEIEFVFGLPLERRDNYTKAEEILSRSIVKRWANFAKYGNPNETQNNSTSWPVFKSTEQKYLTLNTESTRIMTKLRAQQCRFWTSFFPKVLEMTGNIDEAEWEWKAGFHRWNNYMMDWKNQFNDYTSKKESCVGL

[4] = tested on: recombinant human BuChE, normal and "atypical"; test: Spontaneous reactivation after complete inhibition, BuChE; type: biochemical
recombinant normal BuChE = molecular target: T2, recombinant normal BuChE (Homo sapiens, UniProt P06276); test: Inactivation by carbamate inhibitors, normal BuChE; type: biochemical; conditions: for second order rate constant ki for inactivation: recombinant normal BuChE, inhibitor concentration in parentheses in table; for inactivation rate compared with AChE: common BuChE
T2 construct: made in house; host or cells: Xenopus oocytes injected with in vitro transcribed mRNA
From the text: (§1) reagent concentration (in parentheses), to calculate second order rate

AChE (E5) = AChE (E5) (Homo sapiens, UniProt P22303); test: Inactivation by carbamate inhibitors, AChE E5; type: biochemical; set-up: made in house; host or cells: Xenopus oocytes injected with ACHE DNA; conditions: inhibitor concentration in parentheses in table
From the text: as §1

recombinant human AChE = test: Spontaneous reactivation after complete inhibition, AChE; type: biochemical
[5] = tested on: H.K., homozygous for the "atypical" allele; conditions: in vivo
[6] = tested on: serum "atypical" BuChE (G/G); test: Inactivation of immobilized serum BuChE, "atypical"; type: biochemical, human; conditions: for rate of irreversible inactivation versus normal: "atypical" serum BuChE
AChE (E6) = AChE (E6) (Homo sapiens, UniProt P22303); test: Inactivation by carbamate inhibitors, AChE E6; type: biochemical; set-up: made in house; host or cells: Xenopus oocytes injected with ACHE DNA; conditions: inhibitor concentration in parentheses in table
From the text: as §1

"atypical" BuChE [7] = molecular target: T1, "atypical" BuChE; conditions: cited from earlier work; remark: listed apart in the source
Target sequence in this assay (P06276 29-602 D98G limits assumed): as above

[8] = molecular target: T3, Rec. BuChE G/G ("atypical") (Homo sapiens, UniProt P06276, D98G); test: Inhibition by cocaine / α-solanine, recombinant G/G; type: biochemical; conditions: Rec. BuChE G/G; read-out: IC50 α-solanine
T3 construct: made in house; host or cells: Xenopus oocytes (microinjected in vitro transcribed mRNA)

[9] = molecular target: T4, normal BuChE (serum and recombinant) (Homo sapiens, UniProt P06276); test: Inhibition by cocaine / α-solanine, normal enzymes; type: biochemical; conditions: normal; read-out: IC50 for α-solanine
T4 construct: made in house; host or cells: Xenopus oocytes (recombinant) and normal human serum (native), reported together

[10] = tested on: Serum BuChE D/G (heterozygote); type: biochemical, human; conditions: read-out: IC50 α-solanine
[11] = molecular target: serum and recombinant "atypical" BuChE (Homo sapiens, UniProt P06276, D98G); test: Inhibition by cocaine / α-solanine, "atypical" enzymes; type: biochemical; conditions: for activity of "atypical" enzyme at high α-solanine: concentrations higher than 5 μM, FIG. 3
[12] = molecular target: T5, Serum BuChE G/G ("atypical") (Homo sapiens, UniProt P06276, D98G); test: Inhibition by cocaine / α-solanine, serum G/G; type: biochemical; conditions: Serum BuChE G/G; read-out: IC50 α-solanine
T5 construct: applicants prepared serum from an individual who had experienced succinylcholine-induced apnea; from tissue; host or cells: human serum, homozygous carrier of the atypical allele

Rec. BuChE D/D (normal) = molecular target: T6, Rec. BuChE D/D (normal) (Homo sapiens, UniProt P06276); test: Inhibition by cocaine / α-solanine, recombinant D/D; type: biochemical; conditions: Rec. BuChE D/D; read-out: IC50 α-solanine
T6 construct: made in house; host or cells: Xenopus oocytes (microinjected in vitro transcribed mRNA)

Serum BuChE D/D (normal) = molecular target: T7, Serum BuChE D/D (normal) (Homo sapiens, UniProt P06276); test: Inhibition by cocaine / α-solanine, serum D/D; type: biochemical; conditions: Serum BuChE D/D; read-out: IC50 α-solanine
T7 construct: with enzyme from normal serum; from tissue; host or cells: human serum, normal homozygote

[13] = tested on: Rec. BuChE D/G (1:1 mixture); type: biochemical, human; conditions: read-out: IC50 α-solanine
serum normal BuChE (D/D) = test: Inactivation of immobilized serum BuChE, normal; type: biochemical, human; conditions: 30 minutes; normal enzyme
[14] = tested on: recombinant human ChEs (all of the examined enzymes); test: Spontaneous reactivation after complete inhibition, all enzymes; type: biochemical
"atypical" BuChE [15] = molecular target: T1, "atypical" BuChE
Target sequence in this assay (P06276 29-602 D98G): as the sequence (P06276 29-602 D98G limits assumed) above
Protocol: Recombinant normal and "atypical" BuChE were produced in Xenopus oocytes microinjected with in vitro transcribed BuChEmRNAs prepared from the corresponding cDNA types (Neville et al, 1990a).
Free binding sites were blocked with PBS-T buffer (144 mM NaCl, 20 mM Na phosphate pH 7.4, 0.05% Tween 20 and 0.01% Tymerosal) for 60 minutes at 37° C. […] Plates were washed three times with PBS-T prior to use.
Inactivation and reactivation measurements: Antibody-immobilized enzymes were exposed to the tested anti-ChEs in PBS-T buffer for varying times (0.5 to 80 minutes) following an initial determination of catalytic activities. At the noted time points, plates were washed three times with PBS-T and remaining substrate hydrolysis rates were determined (Loewenstein et al., 1993a). Spontaneous reactivation was measured for immobilized recombinant ChEs following complete inhibition, three washes with PBS-T, and subsequent incubation for the noted time and activity determination.

[16] = tested on: heterozygous serum BuChE (D/G); test: Inactivation of immobilized serum BuChE, heterozygote; type: biochemical, human; conditions: 30 minutes
PD-patient = conditions: in vivo; cited from earlier work
[17] = tested on: BuChE in sera from heterozygotes
[18] = tested on: patients suffering from mild to moderate AD; conditions: cited from earlier work
THA treated patients = conditions: in vivo, cited from earlier work
AD patients = conditions: in vivo; cited from earlier work
[19] = tested on: "atypical" BuChE in H.K.'s serum; test: Serum BuChE hydrolysis, H.K.'s serum; type: biochemical, human

T2 sequence (P06276 29-602): as the sequence (P06276 29-602 D98G limits assumed) above, with G70D counted along it
Sequence of AChE (E6) (P22303 32-614): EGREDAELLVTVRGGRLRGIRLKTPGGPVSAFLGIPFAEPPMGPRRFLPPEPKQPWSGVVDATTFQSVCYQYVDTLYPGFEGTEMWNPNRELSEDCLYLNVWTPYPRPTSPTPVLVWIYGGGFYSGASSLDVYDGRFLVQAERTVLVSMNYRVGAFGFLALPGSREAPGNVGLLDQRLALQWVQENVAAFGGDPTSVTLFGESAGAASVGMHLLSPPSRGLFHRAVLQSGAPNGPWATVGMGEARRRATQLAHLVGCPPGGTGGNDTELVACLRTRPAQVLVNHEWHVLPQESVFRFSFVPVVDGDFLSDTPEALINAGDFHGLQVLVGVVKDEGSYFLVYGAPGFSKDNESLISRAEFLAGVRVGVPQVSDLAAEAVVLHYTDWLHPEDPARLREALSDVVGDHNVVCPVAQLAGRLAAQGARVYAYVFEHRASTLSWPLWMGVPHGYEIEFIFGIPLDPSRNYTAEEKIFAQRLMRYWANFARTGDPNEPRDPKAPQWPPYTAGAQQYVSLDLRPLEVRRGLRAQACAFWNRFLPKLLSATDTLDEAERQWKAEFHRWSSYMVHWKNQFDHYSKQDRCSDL
Sequence of serum and recombinant "atypical" BuChE (P06276 29-602 D98G limits assumed): as the sequence (P06276 29-602 D98G limits assumed) above
Sequence of AChE (E5) (P22303-4 with tags, fused parts or gaps limits assumed): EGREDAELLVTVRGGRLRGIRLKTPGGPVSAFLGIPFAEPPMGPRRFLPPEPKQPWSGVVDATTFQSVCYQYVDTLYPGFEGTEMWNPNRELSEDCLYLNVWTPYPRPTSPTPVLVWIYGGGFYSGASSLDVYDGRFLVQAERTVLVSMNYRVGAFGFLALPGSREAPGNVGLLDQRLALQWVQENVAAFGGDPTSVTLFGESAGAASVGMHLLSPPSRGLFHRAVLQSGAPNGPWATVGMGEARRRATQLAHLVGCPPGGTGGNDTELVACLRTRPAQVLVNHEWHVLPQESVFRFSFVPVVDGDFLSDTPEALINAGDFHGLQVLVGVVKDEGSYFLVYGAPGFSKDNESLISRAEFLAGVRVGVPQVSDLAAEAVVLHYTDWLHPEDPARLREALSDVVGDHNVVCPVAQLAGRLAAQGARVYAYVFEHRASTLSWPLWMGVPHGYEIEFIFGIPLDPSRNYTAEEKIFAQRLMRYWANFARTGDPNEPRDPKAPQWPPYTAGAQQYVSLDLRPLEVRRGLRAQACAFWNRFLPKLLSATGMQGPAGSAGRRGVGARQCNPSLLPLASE
T7 sequence (P06276 29-602): as the sequence (P06276 29-602 D98G limits assumed) above, with G70D counted along it
T4 sequence (P06276 29-602): as the sequence (P06276 29-602 D98G limits assumed) above, with G70D counted along it
T6 sequence (P06276 29-602): as the sequence (P06276 29-602 D98G limits assumed) above, with G70D counted along it
T5 sequence (P06276 29-602 D98G): as the sequence (P06276 29-602 D98G limits assumed) above
T3 sequence (P06276 29-602 D98G): as the sequence (P06276 29-602 D98G limits assumed) above

Question: For `CN(C)C(=O)Oc1cccc([N+](C)(C)C)c1` [neostigmine], which potency / affinity (ChE) is on record?
Answer: The potency / affinity was “potency equal to or greater than physostigmine”.

Question: For `CC(C)NP(=O)(NC(C)C)OP(=O)(NC(C)C)NC(C)C` [iso-OMPA, tetraisopropylpyrophosphoramide], which “staining of term placenta” value [1] is on record?
Answer: The value was “no reduction in labeling intensity”.

Question: And the “staining of early placenta sections” value [2]?
Answer: The value was “remained totally unlabeled”.

Question: And the “sensitivity of atypical variant to inhibitors” value ("atypical" BuChE [3])?
Answer: Its value is “much less sensitive”.

Question: What does the source list for `CN(C)C(=O)Oc1ccc[n+](C)c1` [pyridostigmine]?
Answer: spontaneous reactivation, % of original activity ([4]; BuChE, pyridostigmine, FIG. 4): 10%; second order rate constant ki for inactivation (recombinant normal BuChE): 1900 ± 200 M⁻¹ min⁻¹; second order rate constant ki for inactivation (AChE (E5)): 25000 M⁻¹ min⁻¹; spontaneous reactivation, % of original activity (recombinant human AChE; AChE, pyridostigmine, FIG. 4): 50%; adverse symptoms [5]: insomnia, weight loss and general fatigue, which worsened consistently, and a deep depression; time of gradual improvement following discontinuation [5]: 10 weeks; rate of irreversible inactivation versus normal [6]: much slower than its normal counterpart; second order rate constant ki for inactivation (AChE (E6)): 22000 ± 9000 M⁻¹ min⁻¹

Question: For `CCCCOc1cc(C(=O)NCCN(CC)CC)c2ccccc2n1` [dibucaine], which “hydrolysis by the affected ("atypical") enzyme” value ("atypical" BuChE [7]) is on record?
Answer: Its value is “inability”.

Question: What does the source list for `C[C@H]1CC[C@@H]2[C@@H](C)[C@H]3[C@H](C[C@H]4[C@@H]5CC=C6C[C@@H](O[C@@H]7O[C@H](CO)[C@H](O)[C@H](O[C@@H]8O[C@H](CO)[C@@H](O)[C@H](O)[C@H]8O)[C@H]7O[C@@H]7O[C@@H](C)[C@H](O)[C@@H](O)[C@H]7O)CC[C@]6(C)[C@H]5CC[C@]34C)N2C1` [α-solanine]?
Answer: IC50 [8]: 171 µM; IC50 [9]: 2500 nM; IC50 [10]: 3.61 ± 0.81 µM; IC50 ([11]; "atypical"): 170 µM; IC50 difference for α-solanine ([11]; "atypical" vs normal): > 100 fold; activity of "atypical" enzyme at high α-solanine [11]: retains higher activity than the normal and the heterozygote enzymes; activity of "atypical" enzyme at high α-solanine ([11]; listed as α-solanidine): shows higher activities than the normal, D70 enzyme; inhibition of "atypical" enzyme by α-solanine ([11]; up to 10 μM): relatively inert; IC50 [12]: 165 µM; IC50 (Rec. BuChE D/D (normal)): 1950 ± 1040 nM; IC50 (Serum BuChE D/D (normal)): 2880 ± 330 nM; IC50 [13]: 3.54 ± 2.41 µM

Question: Which “staining of term placenta” value [1] does the source give for `C=CC[N+](C)(C)c1ccc(CCC(=O)CCc2ccc([N+](C)(C)CC=C)cc2)cc1` [BW284C51, 1,5-bis-(4-allyldimethylammoniumphenyl)-pentane-3-one dibromide] here?
Answer: Its value is “largely suppressed staining in term”.

Question: And the “staining of early placenta sections” value [2]?
Answer: The value was “not early placenta”.

Question: With `CCN(C)C(=O)Oc1cccc([C@H](C)N(C)C)c1` [SDZ ENA-713] as the compound, how does the “inactivation rate compared with AChE” value (recombinant normal BuChE) read?
Answer: Its value is “higher than or equal to ACHE”.

Question: And the “second order rate constant ki for inactivation” value (“second order rate constant ki” below) (recombinant normal BuChE)?
Answer: Its value is 14000 ± 3000 M⁻¹ min⁻¹.

Question: What about the loss of activity (serum normal BuChE (D/D)) of the same compound?
Answer: Its loss of activity is 95%.

Question: What about the “spontaneous reactivation, % of original activity” value [14] of the same compound?
Answer: The value was at most 8%.

Question: What about the “second order rate constant ki” value (AChE (E5)) of the same compound?
Answer: The value was 3300 ± 600 M⁻¹ min⁻¹.

Question: What about the “inactivation rate of "atypical" BuChE, compared” value ("atypical" BuChE [15]) of the same compound?
Answer: Its value is “considerably lower rates”.

Question: And the loss of activity [16]?
Answer: The loss of activity was 80%.

Question: And the decrease in activity ([6]; 30 minutes, "atypical" BuChE)?
Answer: Its decrease in activity is “about 40%”.

Question: What about the “rate of irreversible inactivation versus normal” value [6] of the same compound?
Answer: The value was “much slower than its normal counterpart”.

Question: And the “second order rate constant ki” value (AChE (E6))?
Answer: Its value is 4300 M⁻¹ min⁻¹.

Question: For `Nc1c2c(nc3ccccc13)CCCC2` [tacrine, 1,2,3,4-tetrahydro-9 aminoacridine], which PD symptoms (PD-patient) is on record?
Answer: Its PD symptoms is “worsening of the symptoms”.

Question: What about the “effect of 1 μm of the drug” value [17] of the same compound?
Answer: The value was “intermediate levels of activity”.

Question: And the “improvement in AD” value ([18]; 30 weeks)?
Answer: Its value is “statistically significant, dose-related improvements”.

Question: What about the “serum level of the aminotransferase” value ([18]; in 2% of the cases) of the same compound?
Answer: The value was 20 times the upper limit of normal value.

Question: What about the “cases reaching 20 times the upper limit of normal aminotransferase” value ([18]; in vivo) of the same compound?
Answer: The value was 2%.

Question: What about the “serum level of the aminotransferase, usual” value ([18]; in vivo) of the same compound?
Answer: Its value is “less than three times the upper limit of normal value”.

Question: What about the “patients with cholinergic side-effects / deficits” value (THA treated patients) of the same compound?
Answer: Its value is “up to 15%”.

Question: What about the “patients with cholinergic side-effects / deficits” value (THA treated patients; listed as THA) of the same compound?
Answer: The value was “over 10%”.

Question: For `CN(C)C(=O)Oc1cc(OC(=O)N(C)C)cc(C(O)CNC(C)(C)C)c1` (stereo not shown) [bambuterol], which “higher IC50 value, "atypical" versus wild-type” value ("atypical" BuChE [3]) is on record?
Answer: The value was “at least 10 fold”.

Question: And the “higher Ki value, "atypical" versus wild-type” value ("atypical" BuChE [3])?
Answer: The value was “at least 10 fold”.

Question: What does the source list for `CCCCCCCNC(=O)Oc1ccc2c(c1)C1(C)CCN(C)C1N2C` (single isomer, unassigned) [N-heptyl physostigmine]?
Answer: spontaneous reactivation, % of original activity ([4]; by 20 minutes, normal and "atypical" BuChE): 10%; inactivation rate compared with AChE (recombinant normal BuChE): higher than or equal to ACHE; second order rate constant ki for inactivation (recombinant normal BuChE): 1.1e+07 ± 3e+06 M⁻¹ min⁻¹; second order rate constant ki for inactivation (AChE (E5)): 1.4e+06 ± 400000 M⁻¹ min⁻¹; spontaneous reactivation, % of original activity (recombinant human AChE; both AChE forms, N-heptyl physostigmine): 5%; inactivation rate of "atypical" BuChE, compared ("atypical" BuChE [15]): considerably lower rates; rate of irreversible inactivation versus normal [6]: much slower than its normal counterpart; second order rate constant ki for inactivation (AChE (E6)): 1.6e+06 M⁻¹ min⁻¹

Question: For `CNC(=O)Oc1ccc2c(c1)[C@]1(C)CCN(C)[C@@H]1N2C` [physostigmine], which “inactivation rate compared with AChE” value (recombinant normal BuChE) is on record?
Answer: The value was “higher than or equal to ACHE”.

Question: And the “second order rate constant ki” value (recombinant normal BuChE)?
Answer: The value was 380000 ± 160000 M⁻¹ min⁻¹.

Question: And the “spontaneous reactivation, % of original activity” value (recombinant human AChE; 45 minutes, AChE)?
Answer: Its value is “up to 90%”.

Question: And the “inactivation rate of "atypical" BuChE, compared” value ("atypical" BuChE [15])?
Answer: The value was “considerably lower rates”.

Question: What about the “rate of irreversible inactivation versus normal” value [6] of the same compound?
Answer: The value was “much slower than its normal counterpart”.

Question: What about the “higher IC50 value, "atypical" versus wild-type” value ("atypical" BuChE [3]) of the same compound?
Answer: Its value is “at least 10 fold”.

Question: What about the “higher Ki value, "atypical" versus wild-type” value ("atypical" BuChE [3]) of the same compound?
Answer: Its value is “at least 10 fold”.

Question: And the “sensitivity of atypical variant to inhibitors” value ("atypical" BuChE [3])?
Answer: Its value is “much less sensitive”.

Question: And the “effect on cognitive functions” value (AD patients)?
Answer: Its value is “small, short-term positive effect on cognitive functions”.

Question: Which results are given for `C[N+](C)(C)CCOC(=O)CCC(=O)OCC[N+](C)(C)C` [succinylcholine]?
Answer: hydrolysis of succinylcholine by H.K.'s serum BuChE [19]: totally incapable of hydrolyzing succinylcholine; also recorded: cannot hydrolyze succinylcholine; hydrolysis by the affected ("atypical") enzyme ("atypical" BuChE [7]): unable to hydrolyze succinylcholine; hydrolysis by the affected ("atypical") enzyme ("atypical" BuChE [7]; listed as succinyl choline): unable to hydrolyze succinyl choline; also recorded: inability
